Experimental data taken from ChEMBL document CHEMBL1150872, “Four new bioactive lobane diterpenes of the soft coral Lobophytum pauciflorum from Mindoro, Philippines” (J Nat Prod, 1998).
Converted amounts (≈) assume the structure as drawn. The source made the active and inactive calls. The rule behind the calls is not given here.

Key:
Cladosporium cucumerinum [1] = experiment: Antifungal activity against Cladosporium cucumerinum at 0.8 umol after 2 days; format: functional
Cladosporium cucumerinum [2] = experiment: Antifungal activity against Cladosporium cucumerinum at 0.4 umol after 2 days; format: functional
Cladosporium cucumerinum [3] = experiment: Antifungal activity against Cladosporium cucumerinum at 0.2 umol after 2 days; format: functional
Cladosporium cucumerinum [4] = experiment: Antifungal activity against Cladosporium cucumerinum at 0.1 umol after 2 days; format: functional
[5] = Toxicity in Artemia salina after 48 hrs; format: organism-based; details: in vivo
Bacillus subtilis = experiment: Antibacterial activity against Bacillus subtilis 168 after 24 hrs by agar diffusion assay; format: functional, subsp. subtilis str. 168
Saccharomyces cerevisiae = experiment: Antifungal activity against Saccharomyces cerevisiae after 2 days; format: functional
Staphylococcus aureus = experiment: Antibacterial activity against Staphylococcus aureus […] after 24 hrs by agar diffusion assay; format: functional, organism-based
Escherichia coli = experiment: Antibacterial activity against Escherichia coli ATCC 25922 after 24 hrs by agar diffusion assay; format: functional, organism-based

SMILES	inhibition zone (IZ) (Cladosporium cucumerinum [1]) [mm]	inhibition zone (IZ) (Cladosporium cucumerinum [2]) [mm]	inhibition zone (IZ) (Cladosporium cucumerinum [3]) [mm]	inhibition zone (IZ) (Cladosporium cucumerinum [4]) [mm]	LC50 at 48 h [5] [µg/mL]	inhibition zone (IZ) (Bacillus subtilis) [mm]	inhibition zone (IZ) (Saccharomyces cerevisiae) [mm]	Activity (Staphylococcus aureus)	Activity (Escherichia coli)
C=C[C@@]1(C)CC[C@H](C2=CC[C@H](C(C)(C)O)OC2=O)C[C@@H]1C(=C)C [LOBATRIENOLIDE]	15	13	9	6	–	–	–	–	–
C=C[C@@]1(C)CC[C@H](/C(C)=C/C[C@@H](O)C(C)(C)O)C[C@@H]1C(=C)C	17	14	9	6	10.5 (≈ 34.3 µM)	–	–	–	–
C=C[C@@]1(C)CC[C@H](/C(=C/C[C@@H](O)C(C)(C)O)COC(C)=O)C[C@@H]1C(=C)C	30	20	10	5	59 (≈ 162 µM)	–	–	–	–
C=C[C@@]1(C)CC[C@H](C2=CCC(O)C(C)(C)OC2)C[C@@H]1C(=C)C (stereo partly drawn)	17	14	10	5	–	–	–	–	–
C=C[C@@]1(C)CC[C@H](/C(C)=C/C[C@@H](OC(C)=O)C(C)(C)O)C[C@@H]1C(=C)C	13	9	5	2	19.1 (≈ 54.8 µM)	–	–	–	–
C=C[C@@]1(C)CC[C@H](C2=CC[C@H](C(C)(C)OC(C)=O)OC2)C[C@@H]1C(=C)C	–	10	8	6	34 (≈ 98 µM)	–	–	–	–
COC1=C(C)C(=O)c2cc(=O)n(C)c(C)c2C1=O [MIMOSAMYCIN]	–	18	15	–	–	–	–	–	–
C=C[C@@]1(C)CC[C@H](C2=CC[C@H](C(C)(C)O)OC2)C[C@@H]1C(=C)C [LOBATRIENE]	15	14	10	5	19.8 (≈ 65 µM)	8	7	inactive	inactive
C=C[C@@]1(C)CC[C@H](/C(C)=C/C=C/C(C)(C)O)C[C@@H]1C(=C)C [FUSCOL]	2	0	0	0	4.18 (≈ 14.5 µM)	–	–	–	–
C=C[C@@]1(C)CC[C@H](/C(=C/C[C@@H](OC(C)=O)C(C)(C)O)COC(C)=O)C[C@@H]1C(=C)C	15	13	10	5	60.4 (≈ 149 µM)	–	–	–	–
C=C[C@@]1(C)CC[C@H](/C(C)=C/C[C@H]2OC2(C)C)C[C@@H]1C(=C)C	5	0	0	0	0.64 (≈ 2.22 µM)	–	–	–	–
